The values below come from ChEMBL document CHEMBL5665443, “Enzyme Inhibitor Single Concentration assay results for EUbOPEN Chemogenomics Library” (2024).

Experiment [1] has as its target G/T mismatch-specific thymine DNA glycosylase (Homo sapiens) (UniProt Q13569). The note with it: Compound Concentration 10.0 uM.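 Also: human TDG cleavage of quenched duplex DNA oligonucleotides coupled to APE1, strand release read as fluorescence at 594 nm, inhibition of TDG activity.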
Description: Inhibition of TDG by quantifying inhibition of TDG-mediated cleavage and dissociation of quenched duplex DNA oligonucleotides, measured as fluorescence at 594 nm. To generate a functional strand incision and increase turn-over this assay is coupled to APE1.
Experiment [2] deals with T1, Endonuclease 8-like 2 (Homo sapiens) (UniProt Q969S2).
T1 sequence (whole entry): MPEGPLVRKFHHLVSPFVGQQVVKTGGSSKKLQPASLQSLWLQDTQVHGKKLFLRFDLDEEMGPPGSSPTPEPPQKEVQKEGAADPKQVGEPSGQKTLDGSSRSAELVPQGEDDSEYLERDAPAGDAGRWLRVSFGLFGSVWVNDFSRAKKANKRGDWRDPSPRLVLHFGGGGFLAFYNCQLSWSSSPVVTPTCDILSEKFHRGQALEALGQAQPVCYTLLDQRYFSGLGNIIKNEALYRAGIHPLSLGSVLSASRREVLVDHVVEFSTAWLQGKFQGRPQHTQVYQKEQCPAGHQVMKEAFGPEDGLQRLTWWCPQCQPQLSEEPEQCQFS
The note with it: Compound Concentration 10.0 uM, Hit No.
Description: Inhibition of NEIL2 by quantifying inhibition of NEIL2-mediated cleavage and dissociation of quenched duplex DNA oligonucleotides, measured as fluorescence at 594 nm.

Experiment [3] has as its target Uracil-DNA glycosylase (Homo sapiens) (UniProt P13051). The conditions noted are these: Compound Concentration 10.0 uM, Hit No.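 Also: UNG excision on a quenched double-stranded DNA oligo probe, with APE1 added for strand incision and turnover, read as fluorescence at 594 nm as strands separate.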
Description: Inhibition of UNG by quantifying inhibition of UNG-mediated cleavage and dissociation of quenched duplex DNA oligonucleotides, measured as fluorescence at 594 nm. To generate a functional strand incision and increase turn-over this assay is coupled to APE1.
Experiment [4] deals with T2, Single-strand selective monofunctional uracil DNA glycosylase (Homo sapiens) (UniProt Q53HV7).
T2 sequence (whole entry): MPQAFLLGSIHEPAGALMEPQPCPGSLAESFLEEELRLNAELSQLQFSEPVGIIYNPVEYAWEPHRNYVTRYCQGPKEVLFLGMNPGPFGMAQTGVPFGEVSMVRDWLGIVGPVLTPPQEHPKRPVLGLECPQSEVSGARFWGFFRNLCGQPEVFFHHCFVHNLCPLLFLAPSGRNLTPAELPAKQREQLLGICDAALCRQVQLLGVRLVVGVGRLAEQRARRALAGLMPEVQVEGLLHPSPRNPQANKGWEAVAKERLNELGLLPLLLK
The note with it: Compound Concentration 10.0 uM, Hit No.
Description: Inhibition of SMUG1 by quantifying inhibition of SMUG1-mediated cleavage and dissociation of quenched duplex DNA oligonucleotides, measured as fluorescence at 594 nm. To generate a functional strand incision and increase turn-over this assay is coupled to APE1.

In experiment [5] the target is N-glycosylase/DNA lyase (Homo sapiens) (UniProt O15527). The note with it: Compound Concentration 10.0 uM.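 Also: OGG1 cleavage of a quenched duplex DNA oligonucleotide, coupled to APE1 for strand incision, read as fluorescence at 594 nm.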
Description: Inhibition of OGG1 by quantifying inhibition of OGG1-mediated cleavage and dissociation of quenched duplex DNA oligonucleotides, measured as fluorescence at 594 nm. To generate a functional strand incision and increase turn-over this assay is coupled to APE1.
The target in experiment [6] is T3, Endonuclease III-like protein 1 (Homo sapiens) (UniProt P78549).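 Also: enzyme assay tracking NTHL1 cutting and release of a quenched double-stranded DNA oligo substrate, read as fluorescence at 594 nm.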
T3 sequence (whole entry): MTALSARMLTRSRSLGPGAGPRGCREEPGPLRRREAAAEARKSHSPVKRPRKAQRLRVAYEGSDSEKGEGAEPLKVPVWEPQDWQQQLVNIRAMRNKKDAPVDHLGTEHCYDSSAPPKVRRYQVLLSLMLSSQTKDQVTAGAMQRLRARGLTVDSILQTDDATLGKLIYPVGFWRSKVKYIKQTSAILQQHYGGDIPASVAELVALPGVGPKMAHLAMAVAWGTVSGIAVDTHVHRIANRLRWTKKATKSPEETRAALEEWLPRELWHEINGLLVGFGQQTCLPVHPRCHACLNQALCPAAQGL
The note with it: Compound Concentration 10.0 uM, Hit No.
Description: Inhibition of NTHL1 by quantifying inhibition of NTHL1-mediated cleavage and dissociation of quenched duplex DNA oligonucleotides, measured as fluorescence at 594 nm.

The target in experiment [7] is Methyl-CpG-binding domain protein 4 (Homo sapiens) (UniProt O95243). The conditions noted are these: Compound Concentration 10.0 uM, Hit No.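 Also: MBD4 activity read as fluorescence at 594 nm from cleavage and release of a quenched duplex DNA oligonucleotide, with APE1 coupled to incise the strand and raise turnover.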
Description: Inhibition of MBD4 by quantifying inhibition of MBD4-mediated cleavage and dissociation of quenched duplex DNA oligonucleotides, measured as fluorescence at 594 nm. To generate a functional strand incision and increase turn-over this assay is coupled to APE1.
Experiment [8] addresses DNA-3-methyladenine glycosylase (Homo sapiens) (UniProt P29372). The note with it: Compound Concentration 10.0 uM, Hit No.
Description: Inhibition of MPG by quantifying inhibition of MPG-mediated cleavage and dissociation of quenched duplex DNA oligonucleotides, measured as fluorescence at 594 nm. To generate a functional strand incision and increase turn-over this assay is coupled to APE1.
Experiment [9] concerns the target Endonuclease 8-like 1 (Homo sapiens) (UniProt Q96FI4). The note with it: Compound Concentration 10.0 uM, Hit No.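 Also: fluorescence at 594 nm from quenched duplex DNA oligonucleotides released by NEIL1 cleavage and strand separation, reported as reduction of this enzyme activity.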
Description: Inhibition of NEIL1 by quantifying inhibition of NEIL1-mediated cleavage and dissociation of quenched duplex DNA oligonucleotides, measured as fluorescence at 594 nm.
Experiment [10] concerns the target T4, Adenine DNA glycosylase (Homo sapiens) (UniProt Q9UIF7).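 Also: human MUTYH activity read as 594 nm fluorescence from cleavage and release of a quenched DNA duplex, coupled with APE1 for strand incision, lower signal meaning inhibition.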
T4 sequence (whole entry): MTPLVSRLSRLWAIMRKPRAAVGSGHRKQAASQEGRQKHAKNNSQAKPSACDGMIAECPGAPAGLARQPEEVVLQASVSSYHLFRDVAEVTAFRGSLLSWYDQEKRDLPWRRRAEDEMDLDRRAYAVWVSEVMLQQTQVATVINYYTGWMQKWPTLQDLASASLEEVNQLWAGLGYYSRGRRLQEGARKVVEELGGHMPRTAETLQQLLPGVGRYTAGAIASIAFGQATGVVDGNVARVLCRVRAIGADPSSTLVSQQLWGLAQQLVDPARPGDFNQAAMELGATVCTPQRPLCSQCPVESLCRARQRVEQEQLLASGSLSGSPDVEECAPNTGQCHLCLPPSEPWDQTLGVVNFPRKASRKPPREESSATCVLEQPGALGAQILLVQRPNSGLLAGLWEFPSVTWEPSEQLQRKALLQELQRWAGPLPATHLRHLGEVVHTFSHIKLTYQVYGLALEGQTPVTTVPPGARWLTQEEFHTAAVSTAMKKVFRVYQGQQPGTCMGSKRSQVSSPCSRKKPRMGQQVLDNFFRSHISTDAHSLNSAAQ
The conditions noted are these: Compound Concentration 10.0 uM, Hit No.
Description: Inhibition of MUTYH by quantifying inhibition of MUTYH-mediated cleavage and dissociation of quenched duplex DNA oligonucleotides, measured as fluorescence at 594 nm. To generate a functional strand incision and increase turn-over this assay is coupled to APE1.

Uracil-DNA glycosylase (Homo sapiens), sequence (P13051 whole entry): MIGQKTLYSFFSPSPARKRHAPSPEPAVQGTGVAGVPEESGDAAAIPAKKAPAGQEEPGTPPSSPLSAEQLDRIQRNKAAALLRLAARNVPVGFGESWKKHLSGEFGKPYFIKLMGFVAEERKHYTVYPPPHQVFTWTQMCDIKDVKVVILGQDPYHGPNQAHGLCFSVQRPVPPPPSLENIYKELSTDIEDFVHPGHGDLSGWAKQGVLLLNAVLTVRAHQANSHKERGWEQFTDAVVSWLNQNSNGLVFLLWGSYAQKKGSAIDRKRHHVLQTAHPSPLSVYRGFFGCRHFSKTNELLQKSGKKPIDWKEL
Endonuclease 8-like 1 (Homo sapiens), sequence (Q96FI4 whole entry): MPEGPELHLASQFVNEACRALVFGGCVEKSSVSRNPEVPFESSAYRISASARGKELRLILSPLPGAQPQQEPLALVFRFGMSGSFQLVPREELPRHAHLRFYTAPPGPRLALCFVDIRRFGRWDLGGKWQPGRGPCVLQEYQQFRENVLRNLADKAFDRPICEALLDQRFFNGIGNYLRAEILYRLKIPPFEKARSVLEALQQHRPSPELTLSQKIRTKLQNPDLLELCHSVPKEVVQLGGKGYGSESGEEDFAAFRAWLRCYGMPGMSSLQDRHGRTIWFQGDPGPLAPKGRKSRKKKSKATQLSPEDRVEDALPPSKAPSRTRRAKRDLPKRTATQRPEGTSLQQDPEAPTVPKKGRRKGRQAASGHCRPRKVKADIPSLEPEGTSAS
Methyl-CpG-binding domain protein 4 (Homo sapiens), sequence (O95243 whole entry, the tested form may be a part): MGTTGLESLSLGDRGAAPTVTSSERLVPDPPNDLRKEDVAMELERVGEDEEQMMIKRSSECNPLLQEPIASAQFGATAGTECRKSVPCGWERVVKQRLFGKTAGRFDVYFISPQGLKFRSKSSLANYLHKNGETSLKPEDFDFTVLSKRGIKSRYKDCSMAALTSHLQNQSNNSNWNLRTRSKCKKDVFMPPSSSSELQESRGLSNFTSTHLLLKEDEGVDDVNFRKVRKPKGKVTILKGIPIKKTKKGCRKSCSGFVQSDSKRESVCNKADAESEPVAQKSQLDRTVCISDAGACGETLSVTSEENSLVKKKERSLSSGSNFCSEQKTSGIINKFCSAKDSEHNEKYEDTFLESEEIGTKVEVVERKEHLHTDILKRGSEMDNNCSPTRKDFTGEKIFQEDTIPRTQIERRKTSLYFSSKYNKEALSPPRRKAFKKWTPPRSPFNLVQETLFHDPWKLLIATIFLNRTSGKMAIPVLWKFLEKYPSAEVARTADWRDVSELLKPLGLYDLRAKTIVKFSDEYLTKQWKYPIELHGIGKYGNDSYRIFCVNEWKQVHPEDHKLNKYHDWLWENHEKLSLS
DNA-3-methyladenine glycosylase (Homo sapiens), sequence (P29372 whole entry): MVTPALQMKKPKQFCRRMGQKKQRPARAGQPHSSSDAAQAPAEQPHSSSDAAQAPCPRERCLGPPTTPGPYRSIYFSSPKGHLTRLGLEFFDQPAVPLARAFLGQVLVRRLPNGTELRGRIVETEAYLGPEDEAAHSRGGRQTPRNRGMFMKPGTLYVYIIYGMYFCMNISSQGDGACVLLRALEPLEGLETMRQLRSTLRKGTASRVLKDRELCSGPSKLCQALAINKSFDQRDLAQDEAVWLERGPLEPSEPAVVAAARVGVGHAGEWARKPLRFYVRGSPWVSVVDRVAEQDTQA
G/T mismatch-specific thymine DNA glycosylase (Homo sapiens), sequence (Q13569 whole entry): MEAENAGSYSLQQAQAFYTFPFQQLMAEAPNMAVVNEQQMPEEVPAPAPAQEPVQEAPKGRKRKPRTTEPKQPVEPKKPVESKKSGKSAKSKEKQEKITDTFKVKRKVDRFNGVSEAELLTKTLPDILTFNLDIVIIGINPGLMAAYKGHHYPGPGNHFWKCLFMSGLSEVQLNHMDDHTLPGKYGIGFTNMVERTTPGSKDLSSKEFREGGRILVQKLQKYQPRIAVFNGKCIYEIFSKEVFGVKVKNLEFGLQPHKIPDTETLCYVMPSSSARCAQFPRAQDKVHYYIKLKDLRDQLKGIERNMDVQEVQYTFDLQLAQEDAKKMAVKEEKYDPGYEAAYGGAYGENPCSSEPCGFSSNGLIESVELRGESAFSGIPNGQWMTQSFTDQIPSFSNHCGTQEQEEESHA
N-glycosylase/DNA lyase (Homo sapiens), sequence (O15527 whole entry): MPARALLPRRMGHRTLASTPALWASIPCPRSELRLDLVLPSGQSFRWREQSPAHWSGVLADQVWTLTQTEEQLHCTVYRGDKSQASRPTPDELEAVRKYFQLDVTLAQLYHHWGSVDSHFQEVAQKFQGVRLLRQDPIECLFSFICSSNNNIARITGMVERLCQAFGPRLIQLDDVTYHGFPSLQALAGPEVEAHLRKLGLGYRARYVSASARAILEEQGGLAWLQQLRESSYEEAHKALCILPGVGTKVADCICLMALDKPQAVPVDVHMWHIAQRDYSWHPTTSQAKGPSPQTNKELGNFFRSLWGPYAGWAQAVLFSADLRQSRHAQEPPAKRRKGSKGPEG

A word on the inhibition: it is the relative decrease from the control value, in per cent. `O=[N+]([O-])c1ccc(CN2CCOCCOCCN(Cc3ccc([N+](=O)[O-])cc3)CCOCC2)cc1`: the inhibition in experiment [1] (Hit No) is -1.51%; in experiment [2], -0.35%; in experiment [3], -6.52%; in experiment [4], -2.67%; in experiment [5] (Hit No) it was -5.46%; in experiment [6], 23.7%. Further, the inhibition was 13.5% in [7], 31.4% in [8], -2.36% in experiment [9] and 3.42% in experiment [10].

`O=[N+]([O-])c1ccc2nc(COCc3nc4ccc([N+](=O)[O-])cc4[nH]3)[nH]c2c1`: the inhibition in experiment [1] (Hit No) was found to be 27.1%; in [2], 2.2%; in experiment [3], 0.834%; in experiment [4], 4.96%; in experiment [5] (Hit No), 7%; in experiment [6], 0.568%. The inhibition is 19.9% in [7], 18.4% in experiment [8], 12.5% in experiment [9] and 6.46% in experiment [10].

On to `COc1ccccc1C(=O)Nc1cccc(NC(=O)c2cccc(C)c2)c1`, for which the inhibition is 19.8% in experiment [1] (Hit No); -3.15% in [2]; -7.92% in experiment [3]; -5.33% in [4]; -2.96% in experiment [5] (Hit No); 15.4% in experiment [6]. Besides, the inhibition in experiment [7] is 14.3%; in [8], 18.5%; in [9], -5.33%; in [10] it was 8.28%.

For the molecule `FC(F)(F)Oc1ccc(-c2ccc3nnc(C(F)(F)F)n3c2)cc1`, the inhibition in experiment [1] (Hit No) is -4.99%; in experiment [2] it was -5.19%; in experiment [3], -4.54%; in experiment [4], -3.97%; in experiment [5] (Hit No) it was -7.36%; in [6], 27.8%. Besides, the inhibition in [7] was 3.41%; in experiment [8] it was 7.52%; in experiment [9], 0.158%; in experiment [10], -0.755%.

In the case of `CCn1cnc2c(-c3ccc(F)c(-c4ccc(S(=O)(=O)CC)cc4OC)c3)cnnc21`, the inhibition is 22.3% in experiment [1] (Hit No); 12.9% in experiment [2]; 6.05% in experiment [3]; 1.23% in experiment [4]; -5.04% in experiment [5] (Hit No); 13.8% in [6]. Moreover, the inhibition turned out to be 19.2% in experiment [7], 7.34% in experiment [8], 6.83% in experiment [9] and 16.3% in experiment [10].

Regarding `O=C(NCC12CC3CC(CC(C3)C1)C2)c1ccccc1Cl`, the inhibition in [1] (Hit No) is 10.4%; in [2], -6.46%; in experiment [3], -0.487%; in experiment [4], -1.71%; in [5] (Hit No), -1.14%; in experiment [6] it was 1.39%. Further, the inhibition in [7] is 30.1%; in [8] it was 21.7%; in experiment [9], 11.9%; in experiment [10], 21.2%.

As to `O=C(Nc1ccccc1Br)N[C@@H]1CCN(c2ccc(C(F)(F)F)cn2)C1`, the inhibition in experiment [1] (Hit No) came to 27.5%; in experiment [2], 2.71%; in experiment [3] it was 2.31%; in [4], 15%; in experiment [5] (Hit No), 3.57%; in [6] it was 6.35%. The inhibition in experiment [7] was 41.6%; in experiment [8], 35.3%; in experiment [9], -1.77%; in experiment [10], 26.9%.

For the molecule `COc1ccc2c(c1)C(C(=O)N(Cc1ccc(N(C)C)cc1)c1ccc(C(C)C)cc1)CCC2` (configuration not stated), the inhibition in experiment [1] (Hit No) is 15.3%; in [3], -2.75%; in [4] it was -6.91%; in experiment [5] (Hit No), 3.53%; in experiment [6], 0.568%; in [7], 26.8%. In addition, the inhibition in experiment [8] was determined as 34.2%; in experiment [9], 4.6%; in experiment [10] it was 34.4%.

On to `CCCCc1nc(Cl)c(CO)n1Cc1ccc(-c2ccccc2-c2nnn[nH]2)cc1`, for which the inhibition in experiment [1] (Hit No) is 8.31%; in [3], -9.96%; in [4] it was -6.19%; in experiment [5] (Hit No), -0.971%; in [6] it was 11.4%; in experiment [7] it was 1.95%. For the same molecule, the inhibition in experiment [8] is -2.79%; in [9], -2.87%; in experiment [10], 4.88%.

For `CN[C@@H]1Cc2cccc3[nH]c(=O)n(c23)C1`, the inhibition is 15.8% in experiment [1] (Hit No); -3.54% in experiment [3]; 0.551% in experiment [4]; -6.94% in experiment [5] (Hit No); 21.2% in experiment [6]; 11.7% in experiment [7]. In addition, the inhibition in [8] was -1.72%; in experiment [9], -2.21%; in experiment [10], 46.8%.

For `COc1cc(N)c(Cl)cc1C(=O)NC1CN2CCC1CC2` (configuration not stated), the inhibition in experiment [1] (Hit No) was -0.441%; in experiment [3], -6.64%; in experiment [4], -3.07%; in [5] (Hit No) it was 1%; in experiment [6] it was 17.1%; in experiment [7], -9.33%. Besides, the results for the inhibition in experiment [8], in [9] and in experiment [10] were -7.22%, -0.139% and 0.595%, respectively.

On to `Cc1cc(C)cc(-c2cnc3cc(Cl)c(-c4cccc(O)c4)cc3c2OCCCN)c1`, for which the inhibition in experiment [1] (Hit No) was 24.4%; in [2], 2.26%; in [3] it was -7.52%; in [4], 14.7%; in [5] (Hit No) it was -3.25%; in experiment [6], -4.67%. Further, the inhibition in experiment [7] is 9.27%; in experiment [8], 9.86%; in experiment [10], -5.74%.

`Cc1cccc(C2CN(C)CCc3c2cc(O)c(O)c3Cl)c1` (configuration not stated): the inhibition was 27.7% in [1] (Hit No); -2.8% in experiment [3]; -3.57% in experiment [4]; -8.27% in experiment [5] (Hit No); 7.17% in experiment [6]; 26.4% in [7]. Moreover, the inhibition is 15% in experiment [8], -4.88% in experiment [9] and 33.4% in [10].

`COc1ccc2[nH]c(I)c(CCNC(C)=O)c2c1`: the inhibition in [1] (Hit No) was 3.33%; in [3], -9.84%; in [4] it was -7.64%; in experiment [5] (Hit No) it was -3.69%; in experiment [6], -1.91%; in experiment [7], 8.97%. The figures for the inhibition in experiment [8], in experiment [9] and in experiment [10] were -6.47%, -5.77% and 10.2%, respectively.

In the case of `CC(C)(O)c1ccccc1CC[C@@H](SCC1(CC(=O)O)CC1)c1cccc(/C=C/c2ccc3ccc(Cl)cc3n2)c1`, the inhibition in experiment [1] (Hit Yes) turned out to be 66.5%; in experiment [2], 14%; in experiment [3], 8.83%; in experiment [4], 11.9%; in experiment [5] (Hit Yes) it was 61.2%; in experiment [6], 9.99%. The inhibition in experiment [7] is 56.1%; in experiment [8], 53.9%; in [10], 47.1%.
